The text below walks through data of PubChem BioAssay AID2305 (GlaxoSmithKline (GSK), 2010).

Several values for one entry are separate records, joined by “and”; a condition that tells them apart may be missing. Equal entries are not always repeated.

The IC50 is the concentration needed to halve the response being measured.

In the experiment the test system is P. falciparum 3D7 growth, pLDH absorbance. Briefly: blood-stage malaria parasite growth potency – strain 3D7, dose response (AID 2305).
On to `Cc1cccc2[nH]c(-c3ccc(-c4cccc(C(=O)N5CCCCC5C(C)O)c4)s3)nc12` (stereo unspecified), for which the IC50 turned out to be 640 nM. For `CCN(c1ccccc1)S(=O)(=O)c1ccc(NC(=O)c2cc(-c3cc(C)ccc3O)n[nH]2)cc1`, the IC50 turned out to be 770 nM. The figure for `O=C(Nc1cccc(-c2cc3ccccc3[nH]2)c1)C1CCN(Cc2ccccc2O)CC1` is 940 nM. Compound `CC(=O)Nc1cccc(C(=O)Nc2ccc(-c3cccc(-c4nc5c(C)cccc5[nH]4)c3)cc2)c1` came in with a 50% inhibitory concentration (IC50) of 790 nM. The result for `COc1ccc2cc(C(C)NC3CCN(c4cccc(NC(=O)c5ccncc5)c4)CC3)ccc2c1` (stereo unspecified) reads 1550 nM; that for `Cc1[nH]c(C)c(-c2cccc(-c3ccc(OC(F)(F)F)cc3)c2)c(=O)c1Br`, 410 nM. As for `Cc1cccc(-c2cccc3c(NC(=O)N4CCc5cc6nccc(N7CCN8CCC[C@H]8C7)c6cc54)cccc23)n1`, the IC50 was found to be 920 nM.

On to `CCC(C)(C)c1ccc(Oc2ccc(NC(=O)Nc3ccc(Cl)c(Cl)c3)cc2)cc1`, for which the IC50 is 700 nM.

Compound `C/C=C/C=C/C1=NCCc2cc(OCCC)ccc21` gave an IC50 of 910 nM. The compound `NC(N)=NN=C1C=Cc2cccc3cccc1c23` showed an IC50 of 610 nM. `COc1cc2c(cc1C(F)(F)F)N(C(=O)Nc1cc(F)cc(-c3cncnc3)c1)CC2` registered a half-maximal inhibitory concentration (IC50) of 500 nM. The figure for `O=C(NCc1ccc(Cl)c(Cl)c1)c1ccc(-c2nc3ccc(Cl)cc3[nH]2)cc1` is 900 nM; for `CCOc1ccc(C(=O)Nc2cc(Br)c3c(c2)CNCC3)cc1C#N` it is 760 nM; for `Cc1nn(-c2ccccc2)nc1C(=O)N(Cc1ccc(-c2ccc(CNCCc3ccc(S(C)(=O)=O)cc3)cn2)cc1)C(C)CN(C)C` (stereo unspecified) it is 680 nM. `FC(F)(F)c1ccc2nc(-c3cccc(-c4cccc(CNCCN5CCNCC5)c4)c3)[nH]c2c1` showed an IC50 of 940 nM. The IC50 values of the last two compounds are within 1.5-fold of each other. For the compound `COC(=O)c1cccc(CNCc2cccc(-c3cccc(-c4nc5ccc(F)cc5[nH]4)c3)c2)c1`, the IC50 was 130 nM.

In the case of `COc1ccc(Nc2nccc(NCCNC(=O)Nc3ccccc3F)n2)cc1`, the 50% inhibitory concentration (IC50) was determined as 1320 nM. Consider `CCOc1c(CNCCCNc2cc(=O)c3ccccc3[nH]2)cc(I)cc1OC`, for which the IC50 was 1170 nM. On to `Cc1nc(Nc2ccc(F)cc2)nc(N2CCc3ccccc3C2C)c1CO` (stereo unspecified), for which the 50% inhibitory concentration (IC50) was 740 nM. Compound `NC1CCCN(Cc2ccc(-c3cccc(-c4nc5ccc(F)cc5[nH]4)c3)cc2)C1` (stereo unspecified) showed an IC50 of 640 nM. With `O=C(C=Cc1ccccc1Br)NC1CCC(CN2CCC(c3c[nH]c4ccccc34)CC2)CC1` (stereo unspecified), the IC50 was 740 nM and 690 nM. Regarding `O=S(=O)(NCCN1CCCC1)c1ccc(-c2ccc(CNCc3ccccc3)cc2)cc1`, the half-maximal inhibitory concentration (IC50) was 780 nM. The figure for `CCCCC/C=C/C(=O)NC1CCC(CN2CCC(c3c[nH]c4ccccc34)CC2)CC1` (stereo unspecified) is 980 nM; for `NCCCNc1nc(Nc2ccc(C(F)(F)F)cc2F)c2c(=O)[nH]ccc2n1` it is 1050 nM. The result for `CCNC(=O)N1CCN(c2nc(-c3ccccc3)nc(COC)c2Cc2ccc(C)cc2)CC1` reads 990 nM; that for `CCCc1cc([C@@H](O)[C@@H]2C[C@@H]3CCN2C[C@@H]3CC)c2ccccc2n1`, 430 nM; that for `COc1ccc(CCNCC(O)c2cccc(Br)c2)c(Cl)c1OC` (stereo unspecified), 1040 nM. `COc1ccc(C(=O)[C@H]2C[C@@H]2CN(C)CC(O)c2cc(C)c(OC)cc2C)cc1` (stereo partly specified) showed a half-inhibitory concentration (IC50) of 970 nM. The figure for `CCCNCc1ccc(-c2ccc(CN(CCOC)C(=O)COc3ccccc3Cl)cc2)nc1` is 910 nM; for `CN1CCN(Cc2cccc(Nc3nccc(Nc4ccc(Oc5ccccc5)cc4)n3)c2)CC1` it is 300 nM.

Turning to `CC(Cc1ccc(CNC(=O)NCc2ccc(CC(C)NCCc3cccc(Cl)c3)cc2)cc1)NCCc1cccc(Cl)c1` (stereo unspecified), the concentration for half-maximal inhibition (IC50) worked out at 690 nM. This IC50 lies about 2.3-fold higher than the previous one. Consider `CC(C)(C)NCc1cc(Nc2ccnc3cc(Cl)ccc23)ccc1F`, for which the 50% inhibitory concentration (IC50) is 30 nM. Against the preceding compound, the IC50 is about 23-fold lower. In turn, `O=C(Nc1cccc(C(F)(F)F)c1)c1cccc2[nH]c(C(F)(F)F)nc12` registered an IC50 of 640 nM. The compound `CC(=O)N1CCC(C(=O)Nc2ccc(-c3cccc(-c4nc5c(C)cccc5[nH]4)c3)cc2)CC1` registered a 50% inhibitory concentration (IC50) of 310 nM. Compared with the last compound, the IC50 is about 2.1-fold lower. `O=C(/C=C/c1ccc(Cl)c(Cl)c1)NCCCCCN1CCCN(C(=O)Nc2cccc(F)c2)CC1`: the concentration for half-maximal inhibition (IC50) came to 760 nM. The compound `Cc1[nH]c(C)c(-c2ccc(Br)cc2)c(=O)c1Br` displayed an IC50 of 640 nM. The IC50 values of the last two compounds are within 1.5-fold of each other. For `Oc1ccc2nc(N3CCNCC3)nc(NCCCc3ccccc3)c2c1`, the IC50 worked out at 1370 nM. The result for `COc1ccc(Cc2c(C)nc3nc(N)nc(N)c3c2C)cc1OC` reads 910 nM; that for `NC(=O)c1cc(-c2ccccc2)cc2c(C3CCC(NCc4ccccc4)C3)c[nH]c12` (stereo unspecified), 910 nM; that for `Cc1c(Cl)cccc1S(=O)(=O)Nc1cccc(CCN2CCC(N3CCCCC3)CC2)c1`, 830 nM. In turn, `O=C(NCc1cccs1)[C@H](Cc1ccccc1)Nc1ccnc(NCCc2ccccc2)n1` yielded an IC50 of 1050 nM. As for `C/C=C1/CN2CC[C@H]1C[C@H]2[C@H](O)c1ccnc2ccc(OC)cc12`, the IC50 is 200 nM. This IC50 lies about 5.2-fold lower than the previous one.

Turning to `COc1cccc(C2C(C(=O)Nc3ccccc3)=C(C)N=c3s/c(=C\c4ccc(O)cc4)c(=O)n32)c1` (stereo unspecified), the half-inhibitory concentration (IC50) is 580 nM. This IC50 lies about 2.9-fold higher than the previous one. The compound `O=S(=O)(Nc1ccc2nccc(N3CCNCC3)c2c1)c1ccc2oc3ccccc3c2c1` gave an IC50 of 690 nM.

`CS(=O)(=O)CCCNCc1ccc(-c2cc3c(Nc4ccc(OCc5ccccc5)cc4)ncnc3cn2)o1` had an IC50 of 650 nM. This IC50 and that of the compound before are within 1.5-fold of each other. The result for `O=C(Nc1ccc2nc(-c3ccccc3)[nH]c2c1)c1cc(-c2ccc3c(c2)OCCO3)n[nH]1` reads 770 nM; that for `Cc1cccc2[nH]c(-c3ccc(-c4cccc(CNCCc5ccncc5)c4)cc3)nc12`, 200 nM; that for `Cc1cc2cc(-c3ccc(CN)cc3)ccc2nc1N`, 1130 nM. `Cc1ccc(NC(C)C(=O)Nc2ccccc2)cc1S(=O)(=O)N1CCCCCC1` (stereo unspecified) had an IC50 of 60 nM. Take `Cc1ccc(CNC(=O)[C@H](Cc2ccccc2)Nc2ccnc(NCC3CCCCC3)n2)cc1`: the IC50 is 1190 nM. In the case of `O=C(Nc1ccccc1Cc1ccccc1)c1ccccc1C(F)(F)F`, the IC50 was found to be 780 nM. Compared with the last compound, the IC50 is about 1.5-fold lower. `CC[C@H]1CN2CC[C@@H]1C[C@@H]2[C@@H](O)c1cc(-c2ccc(F)cc2)nc2ccc(OC)cc12` gave a half-maximal inhibitory concentration (IC50) of 110 nM. This IC50 is about 7.1-fold lower than that of the compound before. The figure for `O=C(/C=C/C=C/c1ccccc1)NCCCCCN1CCC(c2c[nH]c3ccccc23)CC1` is 1170 nM; for `Oc1ccccc1CN1CCC(CCOC(c2ccccc2)c2ccc(Cl)cc2)CC1` (stereo unspecified) it is 740 nM; for `CCN(CCCN1CCCCC1)c1cc(C)nc(Nc2cccc(OC(F)(F)F)c2)n1` it is 230 nM. The result for `Cc1cccc(CC(N)=NCCCCCCN=C(N)Cc2cccc(C)c2)c1` reads 170 nM; that for `CS(=O)(=O)CCNCc1nc(-c2ccc3ncnc(Nc4ccc(OCc5cccc(F)c5)c(Cl)c4)c3c2)cs1`, 770 nM. In the case of `O=C(NCCCCNCC(Cc1cccc(O)c1)c1ccccc1)c1ccc(NC(=O)c2ccc(Cl)cc2)cc1` (stereo unspecified), the half-maximal inhibitory concentration (IC50) turned out to be 1040 nM.

`C=CCOC(=O)N1CCC(CNCc2ccc(-c3cccc(-c4nc5c(C)cccc5[nH]4)c3)cc2)C1` (stereo unspecified) showed an IC50 of 120 nM. The result for `N#Cc1cccc(CNC(=O)c2cccc(Nc3ccnc4ccc(F)cc34)c2)c1` reads 990 nM. For the compound `O=C(Nc1ccc(-n2ccc(C(F)(F)F)n2)cc1)c1cccs1`, the IC50 turned out to be 1070 nM. This IC50 and that of the compound before are within 1.5-fold of each other. In the case of `CN1CC=C(c2csc3ccc(NC(=O)Nc4ccc(-c5ccncc5)c5ccccc45)cc23)CC1`, the IC50 was found to be 800 nM.

On to `O=S(=O)(Nc1ccc2nccc(N3CCNCC3)c2c1)c1ccc2c(Cl)cccc2c1`, for which the half-inhibitory concentration (IC50) turned out to be 570 nM. With `O=C(Nc1cccc(-c2nn3ccccc3c2-c2ccnc(Nc3cccc(N4CCCC4=O)c3)n2)c1)c1cc(F)ccc1F`, the IC50 is 210 nM.

Regarding `CCNC(=O)Nc1ccc(N(C)c2ccnc(Nc3ccc(CS(C)(=O)=O)cc3)n2)cc1`, the IC50 was found to be 90 nM. Compound `O=C(NCC1CCN(Cc2ccsc2)C1)c1cc(-c2cccc(C(F)(F)F)c2)cs1` (stereo unspecified) displayed an IC50 of 700 nM.

`CC(O)C1CCCCN1C(=O)c1cccc(-c2ccc(-c3nc4ccccc4[nH]3)s2)c1` (stereo unspecified) displayed an IC50 of 800 nM. The IC50 values of the last two compounds are within 1.5-fold of each other. For the compound `C=C[C@H]1CN(CCCCCCC)CC[C@H]1CC(=O)Nc1cnnc2ccc(OC)cc12`, the IC50 worked out at 530 nM. `COc1ccc2ncc(Cl)c(CCN3CC[C@@H](CNCc4cc5c(cn4)OCS5)C3)c2n1` displayed an IC50 of 810 nM. Compound `O=C(/C=C/c1ccc(Cl)c(Cl)c1)NCCCCCN1CCN(C(=O)Nc2cccc(F)c2)CC1` had a half-inhibitory concentration (IC50) of 870 nM. For the compound `CCOc1ccc(-c2nonc2NC(=O)c2ccccc2Cl)cc1OCC`, the IC50 turned out to be 740 nM. The IC50 values of the last two compounds are within 1.5-fold of each other. Turning to `O=S(=O)(Nc1ccc(CCN2CCC(N3CCCCC3)CC2)cc1)c1cccc2cccnc12`, the half-inhibitory concentration (IC50) came out at 1060 nM. The result for `O=C(O[C@H]1CN[C@H](C#Cc2cc3c(Nc4ccc(OCc5cccc(F)c5)c(Cl)c4)ncnc3s2)C1)N1CCCC1` reads 710 nM; that for `CC(C)c1cc(Oc2c(I)cc(CCCc3ncc[nH]3)cc2I)ccc1O`, 1120 nM; that for `CCc1cc(=O)[nH]c(-n2nc(C)cc2NC(=O)CC(c2ccccc2)c2ccccc2)n1`, 960 nM.

As to `CC(=O)Nc1nc(C(=O)Nc2ccc(-c3ccc(-c4nc5ccccc5[nH]4)cc3)cc2)cs1`, the IC50 was 150 nM. For the compound `CN1CCN(c2ccc(-c3cccc(NC(=O)c4cccc([N+](=O)[O-])c4)c3)nn2)CC1`, the half-maximal inhibitory concentration (IC50) came out at 530 nM. The figure for `Cc1ccccc1CCNC(=O)c1cnc(N2CCN(c3ccncc3)CC2)c(Cl)c1` is 1060 nM; for `CC[C@H]1CN2CC[C@@H]1C[C@H]2[C@H](O)c1cc(N2CCC(N3CCCCC3)CC2)nc2ccc(OC)cc12` it is 270 nM. Compound `O=C1CCCN1CCCNCc1cccc(-c2cccc(-c3nc4ccc(C(F)(F)F)cc4[nH]3)c2)c1` gave a concentration for half-maximal inhibition (IC50) of 300 nM. The figure for `Cc1c[nH]c2ccc(/C=C/C(=O)NC3CCC(CCN4CCc5ccc(C#N)cc5CC4)CC3)cc12` (stereo unspecified) is 830 nM; for `CCn1c(-c2nonc2N)nc2c(-c3cc4ccccc4s3)ncc(C(=O)N3CCC(N)C3)c21` (stereo unspecified) it is 870 nM. For `Cc1ccc(C)c(NC(=O)CC2C(=O)N(c3ccccc3)C(=S)N2Cc2ccco2)c1` (stereo unspecified), the half-maximal inhibitory concentration (IC50) worked out at 570 nM. `CC(C)N1CCC(N(Cc2ccc(-c3ccc(Cl)cc3)cc2)C(=O)Cn2c(CCc3cccc(F)c3F)nc(=O)c3ccccc32)CC1` came in with an IC50 of 940 nM. Consider `CCCCCCOc1ccc(C(N)=NCc2ccccc2)c2c1CCCC2`, for which the half-maximal inhibitory concentration (IC50) was determined as 1270 nM. As for `CCOC(=O)[C@H](Cc1cc([N+](=O)[O-])c(Oc2ccc(OC)c(Cc3ccc(OC)c(C(C)C)c3)c2)c([N+](=O)[O-])c1)NC(=O)C(F)(F)F`, the half-inhibitory concentration (IC50) was found to be 980 nM.
